The target in one assay is T1, amyloid β aggregate (Homo sapiens, UniProt P05067).
T1 construct: (Aβ1-42) indicates amyloid β aggregate
Nature of the assay: Fluorescence titration of BODIPY-Zn(Dpa) against amyloid β aggregate (EC50). Type of assay: binding. As to conditions: aggregate 1 μg/mL, 37° C., 30 min. The method, then:
BODIPY-Zn(Dpa) was titrated against a phosphorylated tau aggregate, a tau aggregate, and an amyloid β aggregate to obtain EC50 (a probe concentration at which a half value of the maximum change (ΔFmax) in fluorescence intensity is observed). BODIPY-Zn(Dpa) was titrated against an aggregate at a predetermined concentration (1 μg/mL), and changes in fluorescence intensity at each concentration (ΔF) were plotted. Using a solvent obtained by adding 10% DMSO and 100 μM Zn(NO3)2 to HBS (10 mM HEPES (pH 7.4), 150 mM NaCl), the solution was incubated at 37° C. for 30 min, and fluorescence was measured (excitation wavelength, 490 nm; fluorescence wavelength, 545 nm).

Assay [1] deals with hippocampal tissues from the normal human brain. Kind of assay: Fluorescence staining of normal human brain hippocampal tissue sections. The method, then:
To investigate whether an excessively phosphorylated tau protein in brain tissues can be detected, a fluorescence staining experiment of hippocampal tissue sections from a human brain affected by Alzheimer (AD) and a normal brain was performed using BODIPY-Zn(Dpa). Specifically, hippocampal tissue sections from the AD-affected human brain or the normal brain were deparaffinized (xylene immersion for 5 min was repeated three times, then each section was immersed in 100%, 90%, 80% and 70% aqueous ethanol solution in stages [for 2 min each], and finally washed twice with water for 5 min), lipofuscin was removed (washed twice with PBS for 2 min, immersed in 0.25% by weight permanganate potassium/PBS for 30 min, washed twice with PBS for 2 min, immersed in 1% by weight oxalic acid and 1% by weight potassium pyrosulfate/PBS for 6 min and finally washed twice with PBS for 2 min), trypsin treatment was performed (washed twice with PBS-Tween at room temperature for 2 min and 0.05% Trypsin/PBS at 37° C. for 15 min), and finally washed twice with PBS-Tween at room temperature for 5 min, and costaining was performed using an antibody and BODIPY-Zn(Dpa). First, blocking was performed with 10% goat serum (37° C., 30 min) to remove 10% goat serum, then a primary antibody was added, and a reaction was performed at 4° C. for 17 to 19 h. […]

For assay [2], the target named is T2, phosphorylated tau aggregate (p-Tau) (Homo sapiens, UniProt P10636).
T2 construct: made in house; host or cells: Escherichia coli
Nature of the assay: Fluorescence staining of phosphorylated tau aggregate prepared in vitro. Type of assay: binding. The procedure: Tau proteins (8 μM) expressed by Escherichia coli and heparin (1.6 μM) were incubated at 37° C. for 20 days to prepare a tau aggregate. A phosphorylated tau aggregate was similarly prepared using tau proteins phosphorylated with GSK-3β in vitro. The results of Pro-Q diamond staining after performing SDS-PAGE confirmed that the in-vitro phosphorylation was performed with a phosphorylation degree of 6 mol P/mol Tau.
10 μM BODIPY-Zn(Dpa) or 10 μM thioflavine T (may be referred to as ThT) were added to the prepared tau aggregate or phosphorylated tau aggregate. After the addition, the mixture was washed twice with 0.5 mM Zn(NO3)2, and a suspension (0.5 μL) of the stained phosphorylated tau aggregate was air-dried on a cover glass and observed under a confocal laser scanning microscope (OLYMPUS FV-1000, Obj. lens 100×).

A further assay addresses T3, Tau204-2162P (Homo sapiens, UniProt P10636).
T3 construct: made in house; host or cells: chemical solid-phase synthesis
Kind of assay: Fluorescence titration of BODIPY-Zn(Dpa) with Tau204-2162P (i, i+6). In kind it is binding. The procedure: The phosphorylated peptide-recognizing ability of BODIPY-Zn(Dpa) compound 9 (hereinafter referred to as BODIPY-Zn(Dpa)) was evaluated by measuring fluorescence spectra. Measurement was performed under the following conditions: [BODIPY-Zn(Dpa)]=5 μM; pH 7.2; 50 mM HEPES buffer; and 25° C. The excitation wavelength was λex=530 nm. […] When Tau2P was excessively added, this change reached saturation. The […] calculated from the fluorescence changes was 2.75×10^5 M^−1.
Fluorescence changes when peptide Tau204-2163P or Tau204-2162P used in Example 1 was added dropwise were measured to calculate the affinity (association constant).

The text below walks through data of patent US8093060B2, “Multisite phosphorylated peptide (protein) recognizing compound and detection method, imaging method, alzheimer's disease diagnosing method and reagent kit using the same” (Canon Kabushiki Kaisha, priority 2008, dated 2012).

“Also recorded” adds a separate entry of the source.

T2 sequence (P10636 1-441 isoform P10636-8): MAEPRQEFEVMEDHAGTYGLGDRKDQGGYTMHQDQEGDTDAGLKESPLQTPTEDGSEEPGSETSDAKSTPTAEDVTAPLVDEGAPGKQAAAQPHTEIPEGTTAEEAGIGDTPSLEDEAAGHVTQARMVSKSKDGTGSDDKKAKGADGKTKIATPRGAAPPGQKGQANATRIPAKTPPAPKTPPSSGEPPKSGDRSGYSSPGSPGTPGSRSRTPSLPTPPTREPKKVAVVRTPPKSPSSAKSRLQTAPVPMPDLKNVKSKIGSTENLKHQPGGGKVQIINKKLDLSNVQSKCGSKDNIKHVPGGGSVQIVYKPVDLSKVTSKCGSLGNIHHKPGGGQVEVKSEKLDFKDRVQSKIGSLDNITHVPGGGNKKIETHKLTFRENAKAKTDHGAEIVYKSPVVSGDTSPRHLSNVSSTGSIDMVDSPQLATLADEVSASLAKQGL
T1 sequence (P05067 672-713 limits assumed): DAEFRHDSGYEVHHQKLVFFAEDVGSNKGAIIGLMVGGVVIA

On amyloid β aggregate, `CC1=C(c2ccc(CN(C)Cc3ccccn3)nc2)C(C)=[N+]2C1=C(c1cc(OCCOCCOCCO)cc(OCCOCCOCCO)c1)c1c(C)c(-c3ccc(CN(C)Cc4ccccn4)nc3)c(C)n1[B-]2(F)F.O=[N+]([O-])[O-].O=[N+]([O-])[O-].O=[N+]([O-])[O-].O=[N+]([O-])[O-].[Zn+2].[Zn+2]` [BODIPY-Zn(Dpa)] showed an EC50 of 650 nM. Moreover, in assay [1], the fluorescence in tissue entry is on record as “is not observed”. The staining of aggregate result was “did not stain the aggregate” in assay [2] (p-Tau in the presence of pyrophosphoric acid (PPi)); “could bind to and stain the p-Tau aggregate” in assay [2] (p-Tau, 10 μM dye). Further, the “I/I0 - 1 at saturation” value at Tau204-2162P (Tau204-216 2P (i, i+6)) is on record as “No change”. On Tau204-2162P (Tau204-2162P (i, i+6)), the “detection of / interaction with peptide by fluorescence change” value is given as “could not be detected; also recorded: did not interact”.

What is called EC50 is the concentration needed to bring the measured effect to its halfway point. Higher therefore signals weaker potency.
